30 compounds from patent US11643400B2, “MCL-1 inhibitors” (Gilead Sciences, Inc., priority 2018, dated 2023) can be followed below.

Read-outs that look alike come from different tables or passages of the source.

For one assay, the system named is SKBR3 Cells. Nature of the assay: SKBR3 Cell Viability Assay. It is filed as cell-based. Conditions: CellTiter Glo luminescence, read-out: MCL-1 CV SKBR3 EC50. The procedure:
SKBR3 Cell Viability Assay Materials
SKBR3 Cells (ATCC HTB-30) were obtained from ATCC (Manassas, Va.) and cultured in McCoy 5A's medium (ATCC 30-2007)+10% fetal bovine serum (SH30071.03, HyClone, Pittsburgh, Pa.) plus 1× Penicillin-Streptomycin L-glutamine (Corning 30-009-C1, Corning, N.Y.)).
The cell viability assay was conducted in a 384-well tissue culture plate (Grenier 781086, Monroe, N.C.) in a total volume of 70 μL. Test compounds were prepared in 1,000×, serially diluted, and pre-spotted into 384-well tissue culture plate by Echo 555 Liquid Handler (Labcyte Inc., San Jose, Calif.). Seventy pi of 6,000 SKBR3 cells were dispensed into each well of the plate and incubated at 37° C. with 5% CO2 for 72 hours. At the end of incubation, 2× CellTiter Glo (CTG) reagents (1 part buffer with 2 parts substrate) (Promega, Madison, Wis.) were prepared, and the plate and the reagent were equilibrated to room temperature for 30 minutes. CTG reagent was added to each plate by Biomek FX at 20 μL/well with 5 times pipetting and mixing to induce cell lysis. Luminescence was read by Envision multimode reader (PerkinElmer). […] Percent inhibition was calculated as followed: % Inhibition=100%*(Well−Neg)/(Pos−Neg) Neg, negative control, DMSO Pos, positive control, 10 μM Puromycin
Background: ATP-based viability assays read luminescence as a measure of living cells.

Assay [1] addresses Recombinant human MCL-1 protein (Homo sapiens (Human), UniProt Q07820). Nature of the assay: MCL-1/Bim Binding AlphaLISA Assay. Conditions: 6×His-Mcl-1 (171-327) and biotinylated-Bim peptide (51-76). The procedure:
MCL-1/Bim Binding AlphaLISA Assay.
Inhibition of the MCL-1 and Bim interaction was measured in the following AlphaLISA assay.
Recombinant human MCL-1 protein (C-terminal 6×His Tagged Mcl-1 containing residues 171-327) was generated at Gilead Sciences, Inc. (Foster City, Calif.). A biotinylated peptide derived from human Bim (residues 51-76) was purchased from CPC Scientific (Sunnyvale, Calif.). (CPC 834113). AlphaLISA anti-6His-acceptor beads (AL128R), AlphaScreen Streptavidin donor beads (6760002B), and Proxiplate-384 Plus (6008289) were purchased from PerkinElmer.
The AlphaLISA assay was performed in a 384-well Proxiplate in a total volume of 40 μL. The reaction mixture contained 0.0625 nM 6×His-Mcl-1 (171-327), 0.0625 nM biotinylated-Bim peptide, 10 μg/mL AlphaLISA anti-6×His-AlphaLISA acceptor beads, 40 μg/mL AlphaScreen streptavidin donor beads, and serially diluted test compounds in the binding buffer (20 mM Hepes, pH 7.5 (Teknova H1035); 150 mM NaCl (Promega V4221); 0.002% Brij 35 (Thermo Scientific 20150); 1 mM Dithiothreitol (DTT) Solution (Affymetrix 70726); 0.01% BSA (BioLabs B9000S)). 1,000× test compounds were pre-spotted onto 384-well Proxiplate (Labcyte Echo) by Echo 555 Liquid Handler (Labcyte Inc., San Jose, Calif.) followed by incubation of 5 μl Mcl-1 (171-327) for 1 hour. Then 5 μL Bim (51-76) was added and incubated for 2 hours. Five μL AlphaLISA anti-6His-AlphaLISA acceptor beads were then added for 1 hour followed by addition of 5 μL AlphaScreen streptavidin donor beads for 1 hour. The reaction plates were then read on an Envision multimode reader (PerkinElmer) using AlphaScreen settings. […] Percent inhibition was calculated as shown below: % Inhibition=100%*(Well−Neg)/(Pos−Neg) Neg: negative control, DMSO Pos: positive control, no Mcl-1 protein, no biotinylated-Bim peptide
On the technique in general: Alpha assays give light when donor and acceptor beads are brought close together.

One may read the EC50 as the concentration at which the effect is half-maximal. As a reminder, the IC50 is the concentration needed to halve the response being measured.

Sequence of Recombinant human MCL-1 protein (Q07820 171-327): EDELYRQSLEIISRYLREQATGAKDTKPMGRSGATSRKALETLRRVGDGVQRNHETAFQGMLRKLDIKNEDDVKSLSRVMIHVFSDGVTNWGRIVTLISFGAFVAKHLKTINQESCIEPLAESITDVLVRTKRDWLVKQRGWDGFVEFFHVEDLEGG

On to `CO[C@H]1/C=C/CCC[S@@](=O)(NC(=O)CCc2ncsc2C)=NC(=O)c2ccc3c(c2)N(C[C@@H]2CC[C@H]21)C[C@@]1(CCCc2cc(Cl)ccc21)CO3` [Example 101], for which the EC50 in the assay on SKBR3 Cells (72 hours) came out at 2590 nM.
The same measure, in the same setting: with `CCN(CC)C(=O)OC1CN(C(=O)N[S@@]2(=O)=NC(=O)c3ccc4c(c3)N(C[C@@H]3CC[C@H]3[C@@H](OC)/C=C/C[C@H](C)C2)C[C@@]2(CCCc3cc(Cl)ccc32)CO4)C1` [Example 226] the figure was 71.3 nM; with `COC1CCN(C(=O)N[S@@]2(=O)=NC(=O)c3ccc4c(c3)N(C[C@@H]3CC[C@H]3[C@@H](OC)/C=C/C[C@H](C)C2)C[C@@]2(CCCc3cc(Cl)ccc32)CO4)CC1` [Example 320], 36.6 nM; with `CO[C@H]1/C=C/CCC[S@@](=O)(NC(=O)c2cc3ccccc3n2C)=NC(=O)c2ccc3c(c2)N(C[C@@H]2CC[C@H]21)C[C@@]1(CCCc2cc(Cl)ccc21)CO3` [Example 98], 2190 nM.
For the compound `CCOC1CN(C(=O)N[S@@]2(=O)=NC(=O)c3ccc4c(c3)N(C[C@@H]3CC[C@H]3[C@@H](OC)/C=C/C[C@H](C)C2)C[C@@]2(CCCc3cc(Cl)ccc32)CO4)C1` [Example 235], in the assay with SKBR3 Cells (72 hours), the EC50 turned out to be 39.8 nM.
On the same count and under the same terms, next, `CO[C@H]1/C=C/CCC[S@@](=O)(NC(=O)COc2ccnn2C)=NC(=O)c2ccc3c(c2)N(C[C@@H]2CC[C@H]21)C[C@@]1(CCCc2cc(Cl)ccc21)CO3` [Example 100]: 2260 nM.
On to `CO[C@H]1/C=C/C[C@H](C)C[S@@](=O)(NC(=O)N2CC(C#N)C2)=NC(=O)c2ccc3c(c2)N(C[C@@H]2CC[C@H]21)C[C@@]1(CCCc2cc(Cl)ccc21)CO3` [Example 233], for which the EC50 with SKBR3 Cells (72 hours) came out at 47.2 nM.
Take `CO[C@H]1/C=C/C[C@H](C)C[S@@](=O)(NC(=O)N2CC3(CCO3)C2)=NC(=O)c2ccc3c(c2)N(C[C@@H]2CC[C@H]21)C[C@@]1(CCCc2cc(Cl)ccc21)CO3` [Example 230]: in the assay on SKBR3 Cells (72 hours), the EC50 is 47.1 nM.
Turning to `CO[C@H]1/C=C/CCC[S@@](=O)(NC(=O)CCCC(F)(F)F)=NC(=O)c2ccc3c(c2)N(C[C@@H]2CC[C@H]21)C[C@@]1(CCCc2cc(Cl)ccc21)CO3` [Example 95], the EC50 in the assay with SKBR3 Cells (72 hours) was determined as 1100 nM.
Regarding `CO[C@H]1/C=C/CCC[S@@](=O)(NC(=O)NC2(C(F)(F)F)CC2)=NC(=O)c2ccc3c(c2)N(C[C@@H]2CC[C@H]21)C[C@@]1(CCCc2cc(Cl)ccc21)CO3` [Example 32], in the assay with SKBR3 Cells (72 hours), the EC50 stood at 1480 nM.
The same measure, in the same setting: with `CO[C@H]1/C=C/C[C@H](C)C[S@@](=O)(NC(=O)N2CC3(CCCO3)C2)=NC(=O)c2ccc3c(c2)N(C[C@@H]2CC[C@H]21)C[C@@]1(CCCc2cc(Cl)ccc21)CO3` [Example 231] the figure was 40 nM.
As for `CO[C@H]1/C=C/CCC[S@@](=O)(NC(=O)CCc2cocn2)=NC(=O)c2ccc3c(c2)N(C[C@@H]2CC[C@H]21)C[C@@]1(CCCc2cc(Cl)ccc21)CO3` [Example 57], in assay [1], the IC50 is 0.2 nM. Also, the EC50 with SKBR3 Cells (Homo sapiens, SK-BR-3, 72 h) amounted to 596 nM.
With `CO[C@H]1/C=C/CCC[S@@](=O)(NC(=O)CCc2c(C)cnn2C)=NC(=O)c2ccc3c(c2)N(C[C@@H]2CC[C@H]21)C[C@@]1(CCCc2cc(Cl)ccc21)CO3` [Example 103], in the assay with SKBR3 Cells (72 hours), the EC50 worked out at 10000 nM.
As for `CO[C@H]1/C=C/CCC[S@@](=O)(NC(=O)COC2CCOCC2)=NC(=O)c2ccc3c(c2)N(C[C@@H]2CC[C@H]21)C[C@@]1(CCCc2cc(Cl)ccc21)CO3` [Example 105], the 50% effective concentration (EC50) with SKBR3 Cells (72 hours) amounted to 351 nM.
As for `CO[C@H]1/C=C/CCC[S@@](=O)(NC(=O)CCc2nnc(C)s2)=NC(=O)c2ccc3c(c2)N(C[C@@H]2CC[C@H]21)C[C@@]1(CCCc2cc(Cl)ccc21)CO3` [Example 102], the EC50 in the assay on SKBR3 Cells (72 hours) was 891 nM.
`CO[C@H]1/C=C/C[C@H](C)C[S@@](=O)(NC(=O)C2CC(OC(F)F)C2)=NC(=O)c2ccc3c(c2)N(C[C@@H]2CC[C@H]21)C[C@@]1(CCCc2cc(Cl)ccc21)CO3` (stereo partly shown) [Example 431]: the EC50 in the assay on SKBR3 Cells (72 hours) amounted to 233 nM.
As for `CO[C@H]1/C=C/CCC[S@@](=O)(NC(=O)CCC(F)(F)F)=NC(=O)c2ccc3c(c2)N(C[C@@H]2CC[C@H]21)C[C@@]1(CCCc2cc(Cl)ccc21)CO3` [Example 94], the EC50 with SKBR3 Cells (72 hours) was determined as 902 nM.
In the case of `CO[C@H]1/C=C/CCC[S@@](=O)(NC(=O)CCc2csc(C)n2)=NC(=O)c2ccc3c(c2)N(C[C@@H]2CC[C@H]21)C[C@@]1(CCCc2cc(Cl)ccc21)CO3` [Example 99], in the assay on SKBR3 Cells (72 hours), the EC50 worked out at 2090 nM.
With `COc1nn(C)cc1C(=O)N[S@@]1(=O)=NC(=O)c2ccc3c(c2)N(C[C@@H]2CC[C@H]2[C@@H](OC(=O)CC(C)C)/C=C/C[C@H](C)C1)C[C@@]1(CCCc2cc(Cl)ccc21)CO3` [Example 381], in the assay with SKBR3 Cells (72 hours), the EC50 came out at 534 nM.
`CO[C@H]1/C=C/CCC[S@@](=O)(NC(=O)CCc2ccnn2C)=NC(=O)c2ccc3c(c2)N(C[C@@H]2CC[C@H]21)C[C@@]1(CCCc2cc(Cl)ccc21)CO3` [Example 22]: in the assay with SKBR3 Cells (Homo sapiens, SK-BR-3, 72 h), the concentration for a half-maximal effect (EC50) turned out to be 259 nM.
As to `CO[C@H]1/C=C/CCC[S@@](=O)(NC(=O)CCc2ccccc2)=NC(=O)c2ccc3c(c2)N(C[C@@H]2CC[C@H]21)C[C@@]1(CCCc2cc(Cl)ccc21)CO3` [Example 97], the EC50 in the assay on SKBR3 Cells (72 hours) was determined as 788 nM.
Regarding `COc1nn(C2CC2)cc1C(=O)N[S@@]1(=O)=NC(=O)c2ccc3c(c2)N(C[C@@H]2CC[C@H]2[C@@H](OC)/C=C/C[C@H](C)C1)C[C@@]1(CCCc2cc(Cl)ccc21)CO3` [Example 262], in the assay on SKBR3 Cells (72 hours), the EC50 is 85.8 nM.
`CO[C@H]1/C=C/C[C@H](C)C[S@@](=O)(NC(=O)NC2CC2)=NC(=O)c2ccc3c(c2)N(C[C@@H]2CC[C@H]21)C[C@@]1(CCCc2cc(Cl)ccc21)CO3` [Example 170]: the IC50 in assay [1] is 0.06 nM. For the same compound, in the assay on SKBR3 Cells (Homo sapiens, SK-BR-3, 72 h), the EC50 was found to be 210 nM.
`CCc1nn(C)cc1C(=O)N[S@@]1(=O)=NC(=O)c2ccc3c(c2)N(C[C@@H]2CC[C@H]2[C@@H](OC)/C=C/C[C@H](C)[C@H]1C)C[C@@]1(CCCc2cc(Cl)ccc21)CO3` [Example 188]: the half-inhibitory concentration (IC50) in assay [1] was 0.069 nM. In addition, the EC50 in the assay on SKBR3 Cells (Homo sapiens, SK-BR-3, 72 h) worked out at 78.3 nM.
In the case of `COc1nn(C)cc1C(=O)N[S@@]1(=O)=NC(=O)c2ccc3c(c2)N(C[C@@H]2CC[C@H]2[C@@H](OC)/C=C/[C@H](OC(=O)c2cn(C)nc2OC)CC1)C[C@@]1(CCCc2cc(Cl)ccc21)CO3` [Example 391], the IC50 in assay [1] worked out at 0.702 nM. In the assay on SKBR3 Cells (Homo sapiens, SK-BR-3, 72 h), the EC50 is 4560 nM.
Take `COc1nn(C)cc1C(=O)N[S@@]1(=O)=NC(=O)c2ccc3c(c2)N(C[C@@H]2CC[C@H]2[C@@H](OC(=O)OC(C)C)/C=C/C[C@H](C)C1)C[C@@]1(CCCc2cc(Cl)ccc21)CO3` [Example 384]: the EC50 in the assay with SKBR3 Cells (72 hours) was found to be 154 nM.
As for `CO[C@H]1/C=C/CCC[S@@](=O)(NC(=O)COc2ccccc2)=NC(=O)c2ccc3c(c2)N(C[C@@H]2CC[C@H]21)C[C@@]1(CCCc2cc(Cl)ccc21)CO3` [Example 96], the EC50 in the assay with SKBR3 Cells (72 hours) worked out at 604 nM.
Consider `CCC1CN(C(=O)N[S@@]2(=O)=NC(=O)c3ccc4c(c3)N(C[C@@H]3CC[C@H]3[C@@H](OC)/C=C/C[C@H](C)C2)C[C@@]2(CCCc3cc(Cl)ccc32)CO4)C1` [Example 242], for which, in the assay with SKBR3 Cells (72 hours), the EC50 came to 84 nM.
Consider `CO[C@H]1/C=C/C[C@H](C)C[S@@](=O)(NC(=O)N2CC(C(C)(C)O)C2)=NC(=O)c2ccc3c(c2)N(C[C@@H]2CC[C@H]21)C[C@@]1(CCCc2cc(Cl)ccc21)CO3` [Example 237], for which the EC50 with SKBR3 Cells (72 hours) stood at 121 nM.
The same measure, in the same setting: with `CO[C@H]1/C=C/C[C@H](C)C[S@@](=O)(NC(=O)[C@H]2Cc3ccccc3CO2)=NC(=O)c2ccc3c(c2)N(C[C@@H]2CC[C@H]21)C[C@@]1(CCCc2cc(Cl)ccc21)CO3` (single isomer, unassigned) [Example 143] the figure was 219 nM.
